# Measurements from patent US7906522B2, “2-aminoquinazoline derivatives” (Kyowa Hakko Kirin Co., Ltd, priority 2005, dated 2011).
# Biological target: T1, Activated human p38α (Homo sapiens, UniProt Q16539)
# T1 construct: purchased Upstate Biotechnology Inc. 14-251
# Test: p38MAP kinase inhibition test
# Assay type: biochemical
# Conditions: at a concentration of 1 μmol/L; substrate myelin basic protein, ATP 20 μmol/L, [γ-32P]ATP; read-out: enzyme inhibitory activity
# Protocol: p38MAP Kinase Inhibition Test
# Activated human p38α was purchased from Upstate Biotechnology Inc. (Catalog No. 14-251). P38MAP kinase inhibitory activity was measured by the procedure described below with reference to the method by Whitmarsh A. J. and Davis R. J. [Methods in Enzymology (Method. Enzymol.), vol. 332, p. 319-336 (2001)]. As the substrate to be phosphorylated, a myelin basic protein (Catalog No. 133-13493, Wako Pure Chemical Industries, Ltd.) (20 μg/assay) was used. The reaction was carried out in a solution containing 3-[N-Morpholino]propanesulfonic acid (MOPS) (20 mmol/L, pH 7.2), β-glycerophosphoric acid (Sigma Corp.) (25 mmol/L), ethylenebis(oxyethylenenitrilo)tetraacetic acid (EGTA) (1 mmol/L), […] (Sigma-Aldrich Corp.) (1 mmol/L), dithiothreitol (DTT, Wako Pure Chemical Industries, Ltd.) (1 mmol/L), adenosine 5′-triphosphate (ATP, Sigma Corp.) (20 μmol/L), and MgCl2 (18.75 mmol/L) (total 40 μL/assay). The reaction was started by adding human p38α and [γ-^32P]ATP (1 μCi/assay), and incubation was performed at 30° C. for 15 minutes. The reaction was terminated by adding 4.5% v/v phosphoric acid (10 μL/well). Then, 45 μL of the reaction mixture was adsorbed onto phosphocellulose paper (p81 paper, Code No. 3698023, Whatman International, Maidstone, UK). The phosphocellulose paper was washed with 0.75% v/v phosphoric acid. Then, the radioactivity of the phosphorylated myelin basic protein ([^32P]) remaining on the phosphocellulose paper was measured with a scintillation counter (TRI-CARB2700TR, PerkinElmer, Boston, Mass., USA) using program No. 27 (data mode: cpm, measurement time: 1 min, Background substract: none, energy range measured: LL 0.0-UL 2000) or a scintillation counter (LS6500, BeckmanCoulter, Fullerton, Calif., USA) using program No. 17 (data mode: cpm, measurement time: 1 min, Background substract: none, energy range measured: high). The test compound was dissolved in DMSO before addition.
# T1 sequence (Q16539 whole entry): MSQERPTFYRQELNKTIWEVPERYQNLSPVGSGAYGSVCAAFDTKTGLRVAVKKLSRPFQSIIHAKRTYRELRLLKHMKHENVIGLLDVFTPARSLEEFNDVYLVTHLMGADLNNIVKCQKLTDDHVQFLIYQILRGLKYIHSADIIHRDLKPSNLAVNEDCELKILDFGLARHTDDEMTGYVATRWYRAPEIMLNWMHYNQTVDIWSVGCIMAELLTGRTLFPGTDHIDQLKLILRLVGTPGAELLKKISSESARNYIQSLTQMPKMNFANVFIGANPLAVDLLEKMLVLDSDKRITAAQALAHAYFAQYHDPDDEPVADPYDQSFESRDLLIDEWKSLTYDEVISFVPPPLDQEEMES
row,SMILES,inhibition at 1 µM [%]
1,"COc1cc2nc(NC(C)C)ncc2cc1-c1ccc(F)cc1F [Compound 3, 6-(2,4-Difluorophenyl)-2-isopropylamino-7-methoxyquinazoline]",≥ 50
2,"COc1cc2nc(NC(C)C)ncc2cc1-c1ccccc1Cl [Compound 4, 6-(2-Chlorophenyl)-2-isopropylamino-7-methoxyquinazoline]",≥ 50
3,"COc1cc2nc(N[C@H]3CC[C@H](N)CC3)ncc2cc1-c1ccccc1Cl [Compound 5, 2-(trans-4-Aminocyclohexylamino)-6-(2-chlorophenyl)-7-methoxyquinazoline]",≥ 50
4,"COc1cc2nc(NC3CCCC3)ncc2cc1-c1ccccc1Cl [Compound 6, 6-(2-Chlorophenyl)-2-(cyclopentylamino)-7-methoxyquinazoline]",≥ 50
5,"COc1cc2nc(N[C@H](C)C(C)(C)O)ncc2cc1-c1ccccc1Cl [Compound 7, (R)-6-(2-Chlorophenyl)-2-(2-hydroxy-1,2-dimethylpropylamino)-7-methoxyquinazoline]",≥ 50
6,"COc1cc2nc(N[C@H](C)c3ccccc3)ncc2cc1-c1ccccc1Cl [Compound 8, (R)-6-(2-Chlorophenyl)-7-methoxy-2-[(1-phenylethyl)amino]quinazoline]",≥ 50
7,"COc1cc2nc(N[C@@H](C)c3ccccc3)ncc2cc1-c1ccccc1Cl [Compound 9, (S)-6-(2-Chlorophenyl)-7-methoxy-2-[(1-phenylethyl)amino]quinazoline]",≥ 50
8,"COc1cc2nc(N[C@H]3CC[C@H](O)CC3)ncc2cc1-c1ccccc1Cl [Compound 10, 6-(2-Chlorophenyl)-2-(trans-4-hydroxycyclohexylamino)-7-methoxyquinazoline]",≥ 50
9,"COc1cc2nc(NC3CCOCC3)ncc2cc1-c1ccccc1Cl [Compound 11, 6-(2-Chlorophenyl)-7-methoxy-2-(4-tetrahydropyranylamino)quinazoline]",≥ 50
10,"COc1cc2nc(NC3CCN(S(C)(=O)=O)CC3)ncc2cc1-c1ccccc1Cl [Compound 12, 6-(2-Chlorophenyl)-2-[1-(methylsulfonyl)piperidin-4-ylamino]-7-methoxyquinazoline]",≥ 50
11,"COc1cc2nc(NC3CCN(S(=O)(=O)C(F)(F)F)CC3)ncc2cc1-c1ccccc1Cl [Compound 13, 6-(2-Chlorophenyl)-7-methoxy-2-[1-(trifluoromethylsulfonyl)piperidin-4-ylamino]quinazoline]",≥ 50
12,"COc1cc2nc(NC3CCN(S(=O)(=O)CC(F)(F)F)CC3)ncc2cc1-c1ccccc1Cl [Compound 14, 6-(2-Chlorophenyl)-7-methoxy-2-[1-(2,2,2-trifluoroethylsulfonyl)piperidin-4-ylamino]quinazoline]",≥ 50
13,"COc1cc2nc(NC3CCN(C(N)=O)CC3)ncc2cc1-c1ccccc1Cl [Compound 15, 2-(1-Carbamoylpiperidin-4-ylamino)-6-(2-chlorophenyl)-7-methoxyquinazoline]",≥ 50
14,"COc1cc2nc(Nc3c(F)cccc3F)ncc2cc1-c1ccccc1Cl [Compound 16, 6-(2-Chlorophenyl)-2-(2,6-difluoroanilino)-7-methoxyquinazoline]",≥ 50
15,"COc1cc2nc(Nc3c(Cl)cccc3Cl)ncc2cc1-c1ccccc1Cl [Compound 17, 6-(2-Chlorophenyl)-2-(2,6-dichloroanilino)-7-methoxyquinazoline]",≥ 50
16,"CC(C)Nc1ncc2cc(-c3ccccc3Cl)c(O)cc2n1 [Compound 19, 6-(2-Chlorophenyl)-7-hydroxy-2-isopropylaminoquinazoline]",≥ 50
17,"CC(C)Nc1ncc2cc(-c3ccccc3Cl)c(OC(=O)c3ccccc3)cc2n1 [Compound 20, 7-Benzoyloxy-6-(2-chlorophenyl)-2-isopropylaminoquinazoline]",≥ 50
18,"CC(C)Nc1ncc2cc(-c3ccccc3Cl)c(OCC#N)cc2n1 [Compound 21, 6-(2-Chlorophenyl)-7-cyanomethyloxy-2-isopropylaminoquinazoline]",≥ 50
19,"CC(=O)OCCOc1cc2nc(NC(C)C)ncc2cc1-c1ccccc1Cl [Compound 22, 7-(2-Acetyloxyethyloxy)-6-(2-chlorophenyl)-2-isopropylaminoquinazoline]",≥ 50

row,SMILES,inhibition at 1 µM [%]
1,"CC(C)Nc1ncc2cc(-c3ccccc3Cl)c(OCCO)cc2n1 [Compound 23, 6-(2-Chlorophenyl)-7-(2-hydroxyethyloxy)-2-isopropylaminoquinazoline]",≥ 50
2,"CC(C)Nc1ncc2cc(-c3ccccc3Cl)c(OCCCO)cc2n1 [Compound 24, 6-(2-Chlorophenyl)-7-(3-hydroxypropyloxy)-2-isopropylaminoquinazoline]",≥ 50
3,"CC(C)Nc1ncc2cc(-c3ccccc3Cl)c(OCCCCO)cc2n1 [Compound 25, 6-(2-Chlorophenyl)-7-(4-hydroxybutyloxy)-2-isopropylaminoquinazoline]",≥ 50
4,"COCOc1cc2nc(NC(C)C)ncc2cc1-c1ccccc1Cl [Compound 26, 6-(2-Chlorophenyl)-2-isopropylamino-7-methoxymethyloxyquinazoline]",≥ 50
5,"CC(C)Nc1ncc2cc(-c3ccccc3Cl)c(OCc3ccccc3)cc2n1 [Compound 27, 7-Benzyloxy-6-(2-chlorophenyl)-2-isopropylaminoquinazoline]",≥ 50
6,"CC(C)Nc1ncc2cc(-c3ccccc3Cl)c(OCc3ccc(C(=O)O)cc3)cc2n1 [Compound 28, 7-(4-Carboxyphenylmethyloxy)-6-(2-chlorophenyl)-2-isopropylaminoquinazoline]",≥ 50
7,"CC(C)Nc1ncc2cc(-c3ccccc3Cl)c(OCc3cccc(C(=O)O)c3)cc2n1 [Compound 29, 7-(3-Carboxyphenylmethyloxy)-6-(2-chlorophenyl)-2-isopropylaminoquinazoline]",≥ 50
8,"CC(C)Nc1ncc2cc(-c3ccccc3Cl)c(OCCC(=O)O)cc2n1 [Compound 30, 7-(2-Carboxyethyloxy)-6-(2-chlorophenyl)-2-isopropylaminoquinazoline]",≥ 50
9,"CC(C)Nc1ncc2cc(-c3ccccc3Cl)c(OCCCC(=O)O)cc2n1 [Compound 31, 7-(3-Carboxypropyloxy)-6-(2-chlorophenyl)-2-isopropylaminoquinazoline]",≥ 50
10,"CCOC(=O)COc1cc2nc(NC(C)C)ncc2cc1-c1ccccc1Cl [Compound 32, 6-(2-Chlorophenyl)-7-(ethoxycarbonylmethyloxy)-2-isopropylaminoquinazoline]",≥ 50
11,"CC(C)Nc1ncc2cc(-c3ccccc3Cl)c(OCC(=O)O)cc2n1 [Compound 33, 7-(Carboxymethyloxy)-6-(2-chlorophenyl)-2-isopropylaminoquinazoline]",≥ 50
12,"CC(C)Nc1ncc2cc(-c3ccccc3Cl)c(OCC(C)(C)O)cc2n1 [Compound 34, 6-(2-Chlorophenyl)-7-(2-hydroxy-2-methylpropyloxy)-2-isopropylaminoquinazoline]",≥ 50
13,"CC(C)Nc1ncc2cc(-c3ccccc3Cl)c(OCC(N)=O)cc2n1 [Compound 35, 7-(Carbamoylmethyloxy)-6-(2-chlorophenyl)-2-isopropylaminoquinazoline]",≥ 50
14,"CC(C)Nc1ncc2cc(-c3ccccc3Cl)c(OCC(=O)N(C)C)cc2n1 [Compound 37, 6-(2-Chlorophenyl)-7-(N,N-dimethylcarbamoylmethyloxy)-2-isopropylaminoquinazoline]",≥ 50
15,"CC(C)Nc1ncc2cc(-c3ccccc3Cl)c(OCC(=O)N3CCCCC3)cc2n1 [Compound 38, 6-(2-Chlorophenyl)-2-isopropylamino-7-[(piperidinocarbonyl)methyloxy]quinazoline]",≥ 50
16,"CC(C)Nc1ncc2cc(-c3ccccc3Cl)c(OCC(=O)N3CCOCC3)cc2n1 [Compound 39, 6-(2-Chlorophenyl)-2-isopropylamino-7-[(morpholinocarbonyl)methyloxy]quinazoline]",≥ 50
17,"CC(C)Nc1ncc2cc(-c3ccccc3Cl)c(OCC(=O)N3CCN(C)CC3)cc2n1 [Compound 40, 6-(2-Chlorophenyl)-2-isopropylamino-7-[(4-methylpiperazin-1-ylcarbonyl)methyloxy]quinazoline]",≥ 50
18,"CC(C)Nc1ncc2cc(-c3ccccc3Cl)c(-c3ccc(C(=O)O)cc3)cc2n1 [Compound 41, 7-(4-Carboxyphenyl)-6-(2-chlorophenyl)-2-isopropylaminoquinazoline]",≥ 50
19,"CC(C)Nc1ncc2cc(-c3ccccc3Cl)c(-c3cccc(C(=O)O)c3)cc2n1 [Compound 42, 7-(3-Carboxyphenyl)-6-(2-chlorophenyl)-2-isopropylaminoquinazoline]",≥ 50
